Test [1] deals with Aedes aegypti. The test is described as follows: In vitro Warm Body assay, mosquitoes landing on treated warm body. In kind it is in vivo. The method, then:
The arthropod controlling effect according to the present invention is determined on mosquitoes using an adapted Warm Body assay as defined in Kröber T, Kessler S, Frei J, Bourquin M, Guerin P M. An in vitro assay for testing mosquito controlling compounds employing a warm body and carbon dioxide as a behavioral activator. J Am Mosq Control Assoc. 2010; 26:381-386.
The controlling effect according to the present invention is determined by testing the Warm Body assay against the yellow fever mosquito, Aedes aegypti Rockefeller strain. […] Observations of controlling efficacy were made on host-seeking females of uniform age, 5 to 10 days old selected as mentioned in the publication mentioned hereinabove. Tested hungry females had access to 10% sugar solution but were not blood-fed.
The published protocol has been adapted in not manually counting the landing mosquitoes but automatically using an automatic counting software, the switch from Anopheles gambiae to A. aegypti led to a decrease of mosquitoes' number placed in the tested cage due to the size difference (i.e. 30 mosquitoes instead of 50) and to an increase of lighting as A. aegypti is a diurnal mosquitoes (i.e. 150 lux instead of 4 lux).
The controlling effect according to the present invention is determined by testing the Warm Body assay against the yellow fever mosquito, A. aegypti Rockefeller strain. […] Observations of controlling efficacy were made on host-seeking females of uniform age, 5 to 10 days old selected as mentioned in the publication mentioned hereinabove. Tested hungry females had access to 10% sugar solution but were not blood-fed.
The controlling effect according to the present invention was assessed using an adapted Warm Body assay as defined in Kröber T, Kessler S, Frei J, Bourquin M, Guerin P M. An in vitro assay for testing mosquito controlling compounds employing a warm body and carbon dioxide as a behavioral activator. J Am Mosq Control Assoc. 2010; 26:381-386.
The published protocol has been adapted in not manually counting the landing mosquitoes but automatically using an automatic counting software, the switch from Anopheles gambiae to Aedes aegypti led to a decrease of mosquitoes' number placed in the tested cage due to the size difference (i.e. 30 mosquitoes instead of 50) and to an increase of lighting as Aedes aegypti is a diurnal mosquitoes (i.e. 150 lux instead of 4 lux).
In this in-vitro assay the number of A. aegypti landing on a warm body treated with the tested stimuli was measured in order to assess the repellency effect. Three replicates were carried on the three different doses: 0.0016%, 0.04% and 1% in ethanol, using 25 A. aegypti 10-12 days old females per cage.
In this in-vitro assay, the number of Aedes aegypti landing on a warm body treated with the tested stimuli was measured in order to assess the repellency effect. Three replicates were carried on the three different doses: 0.0016%, 0.04% and 1% in ethanol.
In this in-vitro assay, the number of Aedes aegypti landing on a warm body treated with the tested stimuli was measured in order to assess the repellency effect. One replicate was carried at different doses ranging from 0.0016% up to 1% in ethanol.

The test system of test [2] is Ixodes ricinus. Put plainly: In vitro Warm Plate Assay for ticks. In kind it is in vivo. To be noted: for pest or weed control at 0.0016 % / pest or weed control at 0.04 % / pest or weed control at 1 % / pest or weed control at 0.00032 % / pest or weed control at 0.008 % / pest or weed control at 0.2 %: Ixodes ricinus, read-out: percentage of ticks affected on the Warm Plate; for pest or weed control at 0.00032 %: 0.00032% (Table 10); for pest or weed control at 0.008 %: 0.008% (Table 10); for pest or weed control at 0.2 %: 0.2% (Table 10). The method, then:
Repellent efficacy of the different compounds was assessed against the sheep tick, Ixodes ricinus. I. ricinus is one of the recommended model organisms mentioned by the Guidance on the European Biological Products Regulation [Vol II, Efficacy-Assessment & Evaluation (Parts B+C), v. 3.0, April 2018]. Observations of repellent efficacy were made on last stage nymphs.
The repellent efficacy was assessed using the protocol of the in-vitro Warm Plate Assay as defined in Kröber T, Bourquin M, Guerin P M. A standardized in vivo and in vitro test method for evaluating tick repellents. Pesticide Biochemistry and Physiology. 2013; 107 (2): 160-168.].
The mean±SD number of ticks Ixodes ricinus walking down (affected), falling (affected) or walking-up (non affected) from the warm plate treated with ethanol, N,N-diethyl-3-methylbenzamide, (2,5-dimethyl-2,3-dihydro-1H-inden-2yl)methanol (Ingredient 2) or (2,4,6-trimethyl-2,3-dihydro-1H-inden-2-yl)methanol (Ingredient 1) diluted in ethanol at 0.4 mg/ml and 10 mg/mL was assessed on n groups of 12 ticks (n=2-5).
In this in-vitro assay, the percentage of ticks Ixodes ricinus affected by the stimulus loaded on the warm plate was measured in order to assess the repellency effect. Twelve ticks were assessed per concentrations that goes from 0.0016% up to 1% in ethanol.
Using the same in-vitro setup, the effect on ticks behavior (n≥12) of different stimuli diluted in ethanol at 20% (w/w) was assessed overtime.

Read-outs that look alike come from different tables or passages of the source.

For the compound `Cc1ccc2c(c1)C(O)C(C)(CO)C2` (racemic) [2-(hydroxymethyl)-2,6-dimethyl-2,3-dihydro-1H-inden-1-ol], the “repellent effect with increasing amount of stimuli (in words)” value in test [1] (0.0016%, 0.04% and 1% in ethanol (FIG. 10)) was “low decrease of landing”.
In the case of `C[C@H]1O[C@@H]2c3ccccc3C[C@@H]2[C@@H](C)O1` (racemic) [(2RS,4RS,4ARS,9BSR)-2,4-dimethyl-4,4a,5,9b-tetrahydroindeno[1,2-d][1,3]dioxine], the “number of mosquitoes landed on the Warm Body” value (shortened to “number of mosquitoes landed”) in test [1] (0.0016% in ethanol (Table 6)) was determined as 17; in test [1] (0.04% in ethanol (Table 6)), 13.
For the compound `C[C@@H]1O[C@H](C)[C@@H]2Cc3ccccc3[C@@H]2O1` (racemic) [(2RS,4RS,4ASR,9BRS)-2,4-dimethyl-4,4a,5,9b-tetrahydroindeno[1,2-d][1,3]dioxine], the “number of mosquitoes landed” value in test [1] (0.0016% in ethanol (Table 6)) amounted to 11; in test [1] (0.04% in ethanol (Table 6)) it was 6; in test [1] (1% in ethanol (Table 6)), 2.
In the case of `C[C@@H]1OC[C@]2(C)Cc3ccccc3[C@@H]2O1` (racemic) [(2RS,4aSR,9bSR)-2,4a-dimethyl-4,4a,5,9b-tetrahydroindeno[1,2-d][1,3]dioxin], the “number of mosquitoes landed” value worked out at 34 in test [1] (0.0016% in ethanol (Table 6)), 18 in test [1] (0.04% in ethanol (Table 6)) and 6 in test [1] (1% in ethanol (Table 6)).
Consider `Cc1ccc2c(c1)C[C@]1(C)COC(C)(C)O[C@H]21` (racemic) [(4aRS,9bRS)-2,2,4a,7-tetramethyl-4,4a,5,9b-tetrahydroindeno[1,2-d][1,3]dioxine], for which the “number of mosquitoes landed” value was 51 in test [1] (0.0016% in ethanol (Table 6)), 44 in test [1] (0.04% in ethanol (Table 6)) and 8 in test [1] (1% in ethanol (Table 6)).
The like results for `Cc1ccc2c(c1)[C@H]1OC(C)(C)OC[C@@]1(C)C2` (racemic) [(4aRS,9bRS)-2,2,4a,8-tetramethyl-4,4a,5,9b-tetrahydroindeno[1,2-d][1,3]dioxine] were, in that order, 59, 12 and 11.
In the case of `CC1(C)OC[C@@]2(C)Cc3ccccc3[C@H]2O1` (racemic) [(4aRS,9bRS)-2,2,4a-trimethyl-4,4a,5,9b-tetrahydroindeno[1,2-d][1,3]dioxine], the “number of mosquitoes landed” value came out at 42 in test [1] (0.0016% in ethanol (Table 6)), 47 in test [1] (0.04% in ethanol (Table 6)) and 2 in test [1] (1% in ethanol (Table 6)).
With `Cc1ccc2c(c1)C[C@]1(C)COCO[C@H]21` (racemic) [(4aRS,9bRS)-4a,7-dimethyl-4,4a,5,9b-tetrahydroindeno[1,2-d][1,3]dioxine], the “number of mosquitoes landed” value in test [1] (0.0016% in ethanol (Table 6)) is 17.
Turning to `Cc1ccc2c(c1)[C@H]1OCOC[C@@]1(C)C2` (racemic) [(4aRS,9bRS)-4a,8-dimethyl-4,4a,5,9b-tetrahydroindeno[1,2-d][1,3]dioxin], the “number of mosquitoes landed” value was 34 in test [1] (0.0016% in ethanol (Table 6)), 20 in test [1] (0.04% in ethanol (Table 6)) and 5 in test [1] (1% in ethanol (Table 6)).
On to `CC1(C)OC[C@H]2Cc3ccccc3[C@H]2O1` (racemic) [(4aRS,9bSR)-2,2-dimethyl-4,4a,5,9b-tetrahydroindeno[1,2-d][1,3]dioxin], for which the “number of mosquitoes landed” value is recorded as 30 in test [1] (0.0016% in ethanol (Table 6)), 1 in test [1] (0.04% in ethanol (Table 6)) and 0 in test [1] (1% in ethanol (Table 6)).
As to `COC(=O)C1(C)Cc2ccc(C)cc2C1` (racemic) [(+−)-methyl 2,5-dimethyl-2,3-dihydro-1H-indene-2-carboxylate], in test [2] (0.0016% (Table 11)), the pest or weed control at 0.0016 % was determined as 7%. In test [2] (0.04% (Table 11)), the pest or weed control at 0.04 % is 18%. In addition, the pest or weed control at 1 % in test [2] (1% (Table 11)) was 100%.
As to `COCOCC1(C)Cc2ccc(C)cc2C1` (stereo not shown) [2-((methoxymethoxy)methyl)-2,5-dimethyl-2,3-dihydro-1H-indene], in test [2], the pest or weed control at 0.00032 % turned out to be 0%, the pest or weed control at 0.008 % was determined as 0% and the pest or weed control at 0.2 % was 54%. Also, the pest or weed control at 0.0016 % in test [2] (0.0016% (Table 10)) was found to be 17%. The pest or weed control at 0.04 % in test [2] (0.04% (Table 10)) is 33%. The pest or weed control at 1 % in test [2] (1% (Table 10)) was 100%.
Consider `COC(C)OCC1(C)Cc2ccc(C)cc2C1` (stereo not shown) [2-[(1-methoxyethoxy)methyl]-2,5-dimethylindane], for which, in test [2], the pest or weed control at 0.00032 % was 8%, the pest or weed control at 0.008 % amounted to 21% and the pest or weed control at 0.2 % was determined as 64%. The pest or weed control at 0.0016 % in test [2] (0.0016% (Table 10)) was 0%. Also, the pest or weed control at 0.04 % in test [2] (0.04% (Table 10)) was 33%. In addition, the pest or weed control at 1 % in test [2] (1% (Table 10)) amounted to 100%.
Regarding `CC(C)(C)c1ccc2c(c1)CC1(COC1)C2` [5-(tert-butyl)-1,3-dihydrospiro[indene-2,3′-oxetane]], the pest or weed control at 0.0016 % in test [2] (0.0016% (Table 11)) worked out at 0%. Further, in test [2] (0.04% (Table 11)), the pest or weed control at 0.04 % came out at 17%. In test [2] (1% (Table 11)), the pest or weed control at 1 % amounted to 86%.
The like results for `Cc1cc2c(cc1C)CC(C)(CO)C2` [(2,5,6-trimethyl-2,3-dihydro-1H-inden-2-yl)methanol] were, in that order, 17%, 38% and 77%.
With `CC(=O)OCC1(C)Cc2ccccc2C1` [(2-methyl-2,3-dihydro-1H-inden-2-yl)methyl acetate], in test [2] (0.04% (Table 10)), the pest or weed control at 0.04 % was found to be 25%. In addition, the pest or weed control at 0.2 % in test [2] was determined as 58%. In addition, in test [2] (1% (Table 10)), the pest or weed control at 1 % amounted to 100%.
`CC1OC(C)C2Cc3ccccc3C2O1` (stereo not shown) [ingredient #5, 2,4-dimethyl-4,4a,5,9b-tetrahydroindeno[1,2-d][1,3]dioxine]: the “percentage of ticks being affected” value in test [2] (0.00032% (Table 9)) is listed as 0%; in test [2] (0.00071% (Table 9)) it was 0%; in test [2] (0.0016% (Table 9)), 17%; in test [2] (0.00357% (Table 9)), 0%; in test [2] (0.0053% (Table 9)), 0%; in test [2] (0.008% (Table 9)) it was 0%. In addition, the “percentage of ticks being affected” value in test [2] (0.0119% (Table 9)) is recorded as 0%; in test [2] (0.0178% (Table 9)), 8%; in test [2] (0.0267% (Table 9)), 0%; in test [2] (0.04% (Table 9)), 15%; in test [2] (0.0598% (Table 9)), 0%; in test [2] (0.089% (Table 9)), 7%. For the same compound, the “percentage of ticks being affected” value in test [2] (0.2% (Table 9)) was 38%; in test [2] (0.447% (Table 9)), 71%; in test [2] (1% (Table 9)), 62%.
For the compound “(2,5-dimethyl-2-indanyl)methyl formate)methanol”, the “percentage of ticks affected on the Warm Plate” value was determined as 0% in test [2] (0.0016% (Table 11)), 15% in test [2] (0.04% (Table 11)) and 100% in test [2] (1% (Table 11)).

(Values after patent US20260068882A1, “ARTHROPOD CONTROLLING COMPOSITION” (Firmenich SA, priority 2019, published 2026).)
